These are literature values, as cited in patent US11266683B2, “Antimicrobial and cleansing composition consisting of a polymeric biguanide and EDTA” (priority 2016, dated 2022).

Read-outs that look alike come from different tables or passages of the source.

For the molecule `[H]/N=C(\N/C(=N/[H])NCCCCCCNC(=N)NC(=N)Nc1ccc(Cl)cc1)Nc1ccc(Cl)cc1` [chlorhexidine], the effect on fibroblasts entry with fibroblasts (at higher concentration) is “causes necrosis”; in the series on fibroblasts (at lower concentration), “induces apoptosis”.

On to polyhexamethylene biguanide [PHMB], for which the “risk of the bacterium developing resistance” value with S. aureus was “very low”.
